The record followed here is ChEMBL document CHEMBL1201862, “PubChem BioAssay data set” (2004).

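96-well plates; 48 h exposure; 5 concentrations. Endpoints by linear interpolation between flanking doses. Not reached: highest tested concentration assigned. Here, GI50 denotes the concentration required for 50% inhibition of growth.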 Active and inactive are the calls of the source. No stated cut-off is given here; in the data, active = GI50 up to about 1.1 µM and inactive = higher. Some results are limits rather than exact numbers.

Some test systems named below: SF-539; U-251; Malme-3M; COLO 205; SK-OV-3; CCRF-CEM; SN12C; 786-0; UACC-62; SK-MEL-28; A549; IGROV-1; HCT-15; RPMI-8226; RXF 393; TK-10.
Holding throughout (test): NCI tumour cell line growth inhibition, 48 h

Take `CCOC(=O)C(=O)CC1=Nc2ccccc2SC(c2cccc(C)c2)C1` (stereo not drawn): the GI50 in the test with SF-539 is 19 µM (inactive); in the test with U-251 it was 17.1 µM (inactive); in the test with Malme-3M it was 17.3 µM (inactive); in the test with COLO 205, > 10 µM (inactive); with SK-OV-3 it was > 10 µM (inactive); in the test with CCRF-CEM, 20.6 µM (inactive). The GI50 in the test on SN12C was 17.1 µM (inactive); in the test on 786-0, 17.9 µM (inactive); with UACC-62 it was 16.9 µM (inactive); in the test on SK-MEL-28, 14.6 µM (inactive); with A549, 21.2 µM (inactive); in the test on IGROV-1, 18.4 µM (inactive). Further, the GI50 was 18.2 µM with HCT-15 and 23.7 µM (inactive) in the test on RPMI-8226.
For the compound `Cc1ccc(S(=O)(=O)c2c(N)c3nc4ccccc4n3c3nc4ccccc4nc23)cc1`, the GI50 was 9.27 µM (inactive) in the test with SF-539; 6.75 µM (inactive) in the test on U-251; > 100 µM (inactive) in the test on Malme-3M; > 100 µM (inactive) with COLO 205; > 100 µM (inactive) in the test with SK-OV-3; > 100 µM (inactive) with CCRF-CEM. For the same compound, the GI50 with SN12C was > 100 µM (inactive); in the test on 786-0, 4.93 µM (inactive); with UACC-62 it was > 100 µM (inactive); with SK-MEL-28 it was > 100 µM (inactive); in the test on A549 it was > 100 µM (inactive); in the test with IGROV-1, > 100 µM (inactive). Moreover, the GI50 with HCT-15 is more than 100 µM; in the test on RPMI-8226, > 100 µM (inactive).
As to `O=C(O)c1ccc([C@@H]2C(=O)N(O)[C@@H]3C=CC[C@@H]32)cc1`, the GI50 in the test on SF-539, in the test on Malme-3M, with COLO 205, with SK-OV-3, in the test with CCRF-CEM and with SN12C was > 100 µM (inactive) throughout. For the same compound, the GI50 with 786-0, with UACC-62, in the test on SK-MEL-28, in the test on A549, in the test on IGROV-1 and in the test with RXF 393 was > 100 µM (inactive) in each case. In addition, the GI50 with HCT-15 was more than 100 µM; in the test with RPMI-8226 it was > 100 µM (inactive); in the test on TK-10, > 100 µM (inactive).
For `N#CC(C(=O)CCCC(=O)Nc1ccc(Cl)cc1Cl)c1ccccc1` (stereo not drawn), the GI50 in the test on SF-539, in the test on U-251, with Malme-3M, in the test on COLO 205, in the test on SK-OV-3 and in the test with CCRF-CEM was > 100 µM (inactive) each time. In addition, the GI50 in the test on SN12C, with 786-0, with UACC-62, in the test on SK-MEL-28, in the test with A549 and in the test on IGROV-1 was > 100 µM (inactive) in each case. In addition, the figures for the GI50 in the test with RXF 393, with HCT-15 and with TK-10 were > 100 µM (inactive), more than 100 µM and > 100 µM (inactive), respectively.
`COc1cc(C2C(C(=O)Nc3ccc(Cl)c(Cl)c3)=C(C)NC(C)=C2C(=O)Nc2ccc(Cl)c(Cl)c2)ccc1O`: the GI50 in the test on SF-539 was 10.2 µM (inactive); in the test with U-251, 13.9 µM (inactive); in the test on Malme-3M, 12.6 µM (inactive); with COLO 205 it was 13.3 µM (inactive); in the test on SK-OV-3, 14.8 µM (inactive); in the test with CCRF-CEM, 3.26 µM (inactive). Also, the GI50 was 12.3 µM (inactive) with SN12C; 12.7 µM (inactive) in the test with 786-0; 13.9 µM (inactive) in the test with SK-MEL-28; 12.8 µM (inactive) in the test with A549; 14.2 µM (inactive) with IGROV-1; 2.64 µM (inactive) with RXF 393. For the same compound, the GI50 is 3.89 µM (inactive) in the test on RPMI-8226 and 19.1 µM (inactive) in the test with TK-10.
For the compound `COc1cc2c(cc1OC)C(C#N)N(C(=O)c1ccccc1)C=C2OC(=O)c1ccccc1` (stereo not drawn), the GI50 in the test with SF-539 was 19.1 µM (inactive); in the test on U-251 it was 24.7 µM (inactive); in the test with Malme-3M, 25.3 µM (inactive); with COLO 205 it was 46.6 µM (inactive); in the test on SK-OV-3, 65.8 µM (inactive); with CCRF-CEM it was 36.6 µM (inactive). For the same compound, the GI50 was 38.5 µM (inactive) with SN12C; 18.1 µM (inactive) with 786-0; 20.5 µM (inactive) with UACC-62; 22.9 µM (inactive) in the test on SK-MEL-28; 24.8 µM (inactive) in the test with IGROV-1; 32.1 µM with HCT-15. Moreover, the values for the GI50 in the test with RPMI-8226 and with TK-10 were 39.2 µM (inactive) and 27.1 µM (inactive), respectively.
As to `CCOC(=O)C(Cc1ccccc1)NC(=O)c1ccc(/N=N/N(C)C)cc1` (stereo not drawn), the GI50 in the test on SF-539, in the test on U-251, in the test with Malme-3M, with COLO 205, in the test with SK-OV-3 and in the test on CCRF-CEM was > 100 µM (inactive) throughout. Besides, the GI50 in the test with SN12C, in the test with 786-0, in the test with UACC-62, with SK-MEL-28, in the test with A549 and in the test with IGROV-1 was > 100 µM (inactive) each time. The GI50 is more than 100 µM in the test on HCT-15, > 100 µM (inactive) in the test on RPMI-8226 and > 100 µM (inactive) in the test with TK-10.
For the compound `C/C=C(/CCCCNCCCC)[Si](C)(C)C`, the GI50 in the test with SF-539 was 14.9 µM (inactive); in the test on U-251, 13.5 µM (inactive); in the test with Malme-3M, 16.9 µM (inactive); with COLO 205 it was 11 µM (inactive); in the test with SK-OV-3, 18 µM (inactive); with CCRF-CEM, 8.26 µM (inactive). Further, the GI50 with SN12C is 16.2 µM (inactive); in the test with 786-0, 12.5 µM (inactive); in the test with UACC-62, 17.6 µM (inactive); with SK-MEL-28, 15.8 µM (inactive); in the test on A549 it was 15.3 µM (inactive); with IGROV-1 it was 19.2 µM (inactive). The figures for the GI50 with RXF 393, in the test with HCT-15 and with TK-10 were 8.65 µM (inactive), 14.4 µM and 15 µM (inactive), respectively.
Regarding `Nc1nc2c(N)cc(C(F)(F)F)cc2nc1-c1ccccc1`, the GI50 with SF-539, in the test with U-251, with Malme-3M, in the test on COLO 205, with SK-OV-3 and in the test with CCRF-CEM was > 100 µM (inactive) each time. The GI50 in the test with SN12C, with 786-0, in the test with UACC-62, with SK-MEL-28, with A549 and in the test on IGROV-1 was > 100 µM (inactive) throughout. For the same compound, the GI50 in the test with RXF 393 is > 100 µM (inactive); in the test on HCT-15, more than 100 µM; with TK-10, > 100 µM (inactive).
Take `CC(C)(C)OC(=O)N[C@H]1CC(=O)c2ccccc2N(CC(=O)O)C1=O`: the GI50 in the test with SF-539 is > 100 µM (inactive); in the test with Malme-3M, 19.9 µM (inactive); in the test with COLO 205, > 100 µM (inactive); with SK-OV-3, > 100 µM (inactive); in the test on CCRF-CEM, > 100 µM (inactive); in the test on SN12C, > 100 µM (inactive). In addition, the GI50 in the test with 786-0, in the test with UACC-62, with SK-MEL-28, in the test on A549, with IGROV-1 and with RXF 393 was > 100 µM (inactive) throughout. For the same compound, the results for the GI50 in the test on HCT-15 and in the test on TK-10 were more than 100 µM and > 100 µM (inactive), respectively.
Consider `CC(=O)O[C@]12CCC[C@H]1C1(O)C(O)CCC[C@H]12` (stereo partly drawn), for which the GI50 with U-251, with Malme-3M, with COLO 205, with SK-OV-3, in the test with CCRF-CEM and in the test with SN12C was > 100 µM (inactive) throughout. For the same compound, the GI50 in the test on 786-0 was > 100 µM (inactive); in the test with UACC-62, > 100 µM (inactive); in the test with SK-MEL-28, > 100 µM (inactive); in the test with A549 it was > 100 µM (inactive); with RXF 393, > 100 µM (inactive); in the test with HCT-15, more than 100 µM. The GI50 in the test with RPMI-8226 and in the test with TK-10 was > 100 µM (inactive) each time.
Consider `CC1CC(=O)C(C(O)CC2CC(=O)N(c3ccccc3)C(=O)C2)C(C)C1` (stereo not drawn), for which the GI50 in the test on SF-539, in the test with U-251, in the test with Malme-3M, in the test with COLO 205, with SK-OV-3 and in the test with CCRF-CEM was > 100 µM (inactive) in each case. The GI50 in the test on SN12C, with 786-0, in the test with UACC-62, in the test on SK-MEL-28, in the test with A549 and with IGROV-1 was > 100 µM (inactive) in each case. Further, the GI50 with RXF 393, in the test with RPMI-8226 and with TK-10 was > 100 µM (inactive) throughout.
On to `CCCCCCCCOCC(CO)OCCCCCCCC` (stereo not drawn), for which the GI50 in the test with U-251 is 17.3 µM (inactive); in the test with Malme-3M, 19.6 µM (inactive); in the test on COLO 205 it was 20.6 µM (inactive); with SK-OV-3, > 100 µM (inactive); with CCRF-CEM, 22.5 µM (inactive); in the test with SN12C, 17.4 µM (inactive). In addition, the GI50 in the test on 786-0 is 19.6 µM (inactive); with UACC-62, 20.1 µM (inactive); in the test with SK-MEL-28, 19.2 µM (inactive); in the test with A549, 18.9 µM (inactive); in the test on IGROV-1 it was 21.7 µM (inactive); with HCT-15 it was 15.9 µM. The GI50 in the test on RPMI-8226 is 21.7 µM (inactive); in the test on TK-10 it was 19.2 µM (inactive).
For `O=C(CSc1nc(-c2ccccc2)c(-c2ccccc2)[nH]1)NNC(=S)Nc1ccccc1`, the GI50 in the test with SF-539 is > 100 µM (inactive); in the test on U-251, > 100 µM (inactive); in the test on Malme-3M it was > 100 µM (inactive); with COLO 205 it was 61.7 µM (inactive); in the test on SK-OV-3, > 100 µM (inactive); with CCRF-CEM, 39.4 µM (inactive). In addition, the GI50 was > 100 µM (inactive) in the test on SN12C; > 100 µM (inactive) with 786-0; 0.277 µM (active) in the test with UACC-62; > 100 µM (inactive) with SK-MEL-28; > 100 µM (inactive) in the test on A549; 82.4 µM (inactive) in the test with IGROV-1. For the same compound, the results for the GI50 in the test with HCT-15, in the test on RPMI-8226 and in the test on TK-10 were more than 100 µM, 27.6 µM (inactive) and 53.2 µM (inactive), respectively.
